Results: US20240237641A1, “COMPOSITION COMPRISING GRAPHENE FOR THE TREATMENT OF TEXTILE ARTICLES AND TEXTILE ARTICLES TREATED” (DIRECTA PLUS S.P.A., priority 2021, published 2024)

Columns and labels:
[1] = test system: Sars-CoV-2; assay: Test of inhibition of Sars-CoV-2 viral infection of Vero E6 cells; format: cell-based; conditions: Severe acute respiratory syndrome coronavirus 2, Vero C1008, read-out: viable cells
Procedure: The substances were evaluated in the concentration ranges from […]. With the same concentration (0.015 mg/mL) maximum efficacy was obtained with Curcumin (94% viable cells), followed by Emodin (89% viable cells), α-Hederine (71% viable cells) and Thymoquinone (73% viable cells).

[2] = test system: Vero E6 cells; conditions: substances solubilized in DMSO, luminescence kit for quantification of viable cells
From the text: The substances were solubilized in dimethyl sulfoxide (DMSO) and renal epithelial cells (Vero E6 ATCC® CRL-1586™) were used for the test. The experimental procedure used was divided into 3 steps: • 1) Evaluation of cytotoxicity (amount of dead cells) of DMSO on Vero E6 cells compared to the negative control, i.e., compared to Vero E6 cells not treated with DMSO; • 2) Evaluation of cytotoxicity of the single substances dissolved in DMSO on Vero E6 cells compared to the negative control, i.e., compared to Vero E6 cells not treated with DMSO; • 3) Evaluation of inhibition of the infection of Vero E6 cells by Sars-Cov-2 (around 10^5 viral particles/mL) compared to the positive control, i.e., Vero E6 cells infected but not treated with any phytotherapeutic substance.
The substances were administered to Vero E6 cells at different concentrations gradually decreasing towards lower concentrations. Cytotoxicity was evaluated using a luminescence kit for the quantification of viable cells.

Row | Structure (SMILES) | viability at 15 µg/mL [1] | concentrations tolerated by the cells [2]
1 | C[C@@H]1O[C@@H](O[C@H]2[C@H](O[C@H]3CC[C@@]4(C)[C@@H](CC[C@]5(C)[C@@H]4CC=C4[C@@H]6CC(C)(C)CC[C@]6(C(=O)O)CC[C@]45C)[C@]3(C)CO)OC[C@@H](O)[C@@H]2O)[C@H](O)[C@H](O)[C@H]1O [α-hederine] | 71% | 7500 ng/mL
2 | CC1=CC(=O)C(C(C)C)=CC1=O [thymoquinone] | 73% | 7500 ng/mL
3 | COc1cc(/C=C/C(=O)/C=C(O)/C=C/c2ccc(O)c(OC)c2)ccc1O [curcumin] | 94% | 15000 ng/mL
4 | Cc1cc(O)c2c(c1)C(=O)c1cc(O)cc(O)c1C2=O [emodin] | 89% | 60000 ng/mL
